From patent publication US5244895A, “Anti-ulcer agent” (Hidaka; Hiroyoshi, priority 1991, dated 1993)
Like-named read-outs stand apart in the source and are kept apart here.

How the values were obtained:
Format in all cases: in vivo, Crj:Wistar rat (male)
[1] = system: water immersion restriction stress ulcer; assay: Water immersion restriction stress ulcer, oral administration; conditions: for Gastric damage index: 30 min before 6 h water immersion stress, control 15.7; for inhibition in vivo at 100 mg/kg: Rattus norvegicus, 6 h, read-out: Inhibition rate
Experimental: (§1) After the stress loading, the animal was killed by exsanguination and the cardia part of stomach was ligated and then 10 ml of 1% formalin was poured into the stomach and the stomach was extirpated. […] 0.5 ml/body weight of 1% pontamine sky blue physiological saline was injected intravenously 10 minutes before the slaughter. The test compound was administered after dissolved in physiological saline or in physiological saline containing Tween 80 added. Five […] of physiological saline was administered to the control group.

aspirin ulcer [2] = assay: Anti-aspirin ulcer test, oral administration; conditions: 100 mg/kg oral, 6 h; for Gastric damage index: 30 min before aspirin 200 mg/kg oral, control 76.0; for inhibition in vivo at 100 mg/kg: Rattus norvegicus, gastric damage index vs control, aspirin 200 mg/kg, read-out: Inhibition rate
Experimental: (§2) Each 100 mg/kg of the test compounds was administered orally to a male Crj:Wistar rat of 198 to 243 g body weight fasted for ca. 24 hours (7 to 8 rats per group) and 30 minutes after the administration 200 mg/5 ml/kg of aspirin suspended in 0.5% sodium CMC aqueous solution was administered orally. Six hours later the animals was killed by exsanguination and the cardia part of stomach was ligated and 10 ml of 1% formaline solution was poured into the stomach and the stomach was extirpated. Then, it was incised along the greater curvature side and washed with physiological saline and the major axis of the spotted and linear erosion and ulcer were measured under a steromicroscope and their total sum per head was calculated as the gastric damage index (mm) and the effect was judged by the inhibiting rate against the control group [(Gastric damage index of the control group-Gastric damage index of the test compound)/Gastric damage index of the control group×100]. 0.5 ml/body weight of 1% pontamine sky blue physiological saline was injected intravenously 10 minutes before the slaughter. The test compound was administered after dissolved in physiological saline or in physiological saline containing Tween 80 added. Five […] of physiological saline was administered to the control group.

gastric juice secretion [3] = assay: Anti-gastric juice secretion test, intraduodenal administration (pylorus ligation); conditions: 100 mg/kg intraduodenal, 4 h after pylorus ligation; for pH of gastric juice: control 1.7; for Amount of gastric juice: control 2.6; for Free hydrochloric acid: control 116; for Total acidity: control 168
Experimental: Each 100 mg/kg of the test compounds was administered duodenally to a male Crj:Wistar rat of 205 to 240 g body weight fasted for ca. 24 hours (7 to 8 rats per group) and immediately after the dose the pylorus was ligated under diethyl ether anesthesia. Four hours after the ligation, the animal was killed and the stomach was isolated and the amount and the pH of gastric juice and free hydrochloric acid contained in it and the total acidity of it were measured to examine the effect of inhibiting gastric juice secretion. The test compounds were dosed after dissolved in physiological saline or in physiological saline containing Tween 80 added. Five […] of physiological saline was administered to the control group.

[4] = system: water immersion restriction stress ulcer; assay: Water immersion restriction stress ulcer, intraperitoneal administration; conditions: 100 mg/kg intraperitoneal; for Gastric damage index: control 22.7; for Inhibition rate: gastric damage index vs control
Experimental: as §1

gastric juice secretion [5] = assay: Anti-gastric juice secretion test, intraperitoneal administration (pylorus ligation); conditions: 100 mg/kg intraperitoneal, 30 min before pylorus ligation; for pH of gastric juice: control 1.7; for Amount of gastric juice: control 3.2; for Free hydrochloric acid: control 155; for Total acidity: control 208
aspirin ulcer [6] = assay: Anti-aspirin ulcer test, intraperitoneal administration; conditions: for Gastric damage index: 100 mg/kg intraperitoneal (abdominally injected), control 58.8; for Inhibition rate: gastric damage index vs control, 100 mg/kg intraperitoneal
Experimental: as §2
Each 100 mg/kg of the test compound was abdominally injected to a male Crj:Wistar rat of 210 to 265 g body weight fasted for ca. 24 hours (7 to 8 rats per group) and the procedures were carried out in a same manner as in oral administration.

[7] = gastric damage index vs control, 100 mg/kg oral, water immersion stress

Compound	Gastric damage index ([1]; 100 mg/kg oral)	inhibition in vivo at 100 mg/kg [1, 7]	Gastric damage index (aspirin ulcer [2])	inhibition in vivo at 100 mg/kg (aspirin ulcer [2])	pH of gastric juice (gastric juice secretion [3])	Amount of gastric juice (gastric juice secretion [3])	Free hydrochloric acid (gastric juice secretion [3])	Total acidity (gastric juice secretion [3])	Gastric damage index [4]	Inhibition rate [4]	pH of gastric juice (gastric juice secretion [5])	Amount of gastric juice (gastric juice secretion [5])	Free hydrochloric acid (gastric juice secretion [5])	Total acidity (gastric juice secretion [5])	Gastric damage index (aspirin ulcer [6])	Inhibition rate (aspirin ulcer [6])	inhibition in vivo at 100 mg/kg ([1]; po)
O=S(=O)(NC(Cc1ccc(O)cc1)CN1CCN(c2ccccc2)CC1)c1cccc2cnccc12 (stereo not drawn) [(1), N-[1-(p-hydroxybenzyl)-2-(4-phenylpiperazinyl)ethyl]-5-isoquinoline sulfonamide]	10.5 mm	33%	40.1 mm	47%	2.0	2.2 ml/100 g body weight	36 μEq/100 g body weight	71 μEq/100 g body weight	–	–	–	–	–	–	–	–	–
CN(C(Cc1ccc(O)cc1)CN1CCN(c2cccc(Cl)c2)CC1)S(=O)(=O)c1cccc2cnccc12 (stereo not drawn) [(2), N-{2-[4-(m-chlorophenyl)piperazinyl]-1-(p-hydroxybenzyl)ethyl}-N-methyl-5-isoquinoline sulfonamide]	9.7 mm	38%	40.3 mm	46%	2.1	2.1 ml/100 g body weight	40 μEq/100 g body weight	92 μEq/100 g body weight	–	–	–	–	–	–	–	–	–
O=S(=O)(NC(Cc1ccc(OS(=O)(=O)c2cccc3cnccc23)cc1)CN1CCN(c2ccc(F)cc2)CC1)c1cccc2cnccc12 (stereo not drawn) [(3), N-{2-[4-(p-fluorophenyl)piperazinyl]-1-(p-(5-isoquinolinesulfonyloxy)benzyl]ethyl}-5-isoquinoline sulfonamide]	11.2 mm	29%	56.7 mm	25%	1.8	2.5 ml/100 g body weight	82 μEq/100 g body weight	140 μEq/100 g body weight	–	–	–	–	–	–	–	–	–
O=S(=O)(NC(Cc1ccc(O)cc1)CN1CCCN(c2ccccc2)CC1)c1cccc2cnccc12 (stereo not drawn) [(6), N-[1-(p-hydroxybenzyl)-2-(4-phenylhomopiperazinyl)ethyl]-5-isoquinolinesulfonamide]	12.2 mm	22%	52.9 mm	30%	1.8	2.3 ml/100 g body weight	53 μEq/100 g body weight	87 μEq/100 g body weight	–	–	–	–	–	–	–	–	–
O=S(=O)(NC(Cc1ccc(O)cc1)CN1CCC(OCc2ccc(Cl)c(Cl)c2)CC1)c1cccc2cnccc12 (stereo not drawn) [(7), N-{1-(p-hydroxybenzyl)-2-[4-(3,4-dichlorobenzyloxy)piperidino]ethyl}-5-isoquinoline sulfonamide]	5.4 mm	66%	26.9 mm	65%	2.5	1.2 ml/100 g body weight	26 μEq/100 g body weight	63 μEq/100 g body weight	7.0 mm	69%	2.6	1.5 ml/100 g body weight	32 μEq/100 body weight	71 μEq/100 body weight	15.3 mm	74%	–
CN(C(Cc1ccc(O)cc1)CN1CCC(OCc2ccc(Cl)c(Cl)c2)CC1)S(=O)(=O)c1cccc2cnccc12 (stereo not drawn) [(8), N-{1-(p-hydroxybenzyl)-2-[4-(3,4-dichlorobenzyloxy)piperidino]ethyl}-N-methyl-5-isoquinoline sulfonamide]	6.5 mm	–	28.9 mm	62%	2.3	1.6 ml/100 g body weight	32 μEq/100 g body weight	68 μEq/100 g body weight	–	–	–	–	–	–	–	–	59%
COc1ccc(CC(CN2CCC(OCc3ccc(Cl)c(Cl)c3)CC2)N(C)S(=O)(=O)c2cccc3cnccc23)cc1 (stereo not drawn) [(9), N-{1-(p-methoxybenzyl)-2-[4-(3,4-dichlorobenzyloxy)piperidino]ethyl}-N-methyl-5-isoquinoline sulfonamide]	9.7 mm	38%	45.4 mm	40%	2.1	2.2 ml/100 g body weight	44 μEq/100 g body weight	89 μEq/100 g body weight	–	–	–	–	–	–	–	–	–
CN(C(Cc1ccc(OS(=O)(=O)c2cccc3cnccc23)cc1)CN1CCC(c2ccccc2)CC1)S(=O)(=O)c1cccc2cnccc12 (stereo not drawn) [(10), N-{1-(p-(5-isoquinolinesulfonyloxy)benzyl]-2-(4-phenylpiperidino)ethyl}-N-methyl-5-isoquinoline sulfonamide]	11.2 mm	29%	48.3 mm	37%	1.8	2.4 ml/100 g body weight	68 μEq/100 g body weight	102 μEq/100 g body weight	–	–	–	–	–	–	–	–	–
CN(C(Cc1ccc(O)cc1)CN1CCC(c2ccccc2)CC1)S(=O)(=O)c1cccc2cnccc12 (stereo not drawn) [(11), N-[1-(p-hydroxybenzyl)-2-(4-phenylpiperidino)ethyl]-N-methyl-5-isoquinoline sulfonamide]	6.8 mm	57%	27.3 mm	64%	2.5	1.5 ml/100 g body weight	36 μEq/100 g body weight	65 μEq/100 g body weight	–	–	–	–	–	–	–	–	–
O=C(C(Cc1ccc(OS(=O)(=O)c2cccc3cnccc23)cc1)NS(=O)(=O)c1cccc2cnccc12)N1CCN(c2ccccc2)CC1 (stereo not drawn) [(12), N-[N,O-bis(5-isoquinolinesulfonyl)tyrosyl]-4-phenylpiperizine]	9.4 mm	40%	43.5 mm	43%	2.1	2.2 ml/100 g body weight	41 μEq/100 g body weight	80 μEq/100 g body weight	–	–	–	–	–	–	–	–	–
CN(C(Cc1ccc(OS(=O)(=O)c2cccc3cnccc23)cc1)C(=O)N1CCN(c2ccccc2)CC1)S(=O)(=O)c1cccc2cnccc12 (stereo not drawn) [(13), N-[N,O-bis(5-isoquinolinesulfonyl)-N-methyltyrosyl]-4-phenylpiperizine]	5.4 mm	66%	30.3 mm	60%	2.3	1.9 ml/100 g body weight	–	–	6.4 mm	72%	2.4	1.6 ml/100 g body weight	55 μEq/100 body weight	102 μEq/100 body weight	17.6 mm	70%	–
